Here are results for three molecules from patent publication US5773411A, “Cyclic compounds linked by a heterocyclic ring useful as inhibitors of platelet glycoprotein IIB/IIIA” (The DuPont Merck Pharmaceutical Company, priority 1994, dated 1998).

Bounds are passed on as bounds.

A word on the IC50: it is the midpoint of a concentration-inhibition curve.

The assay relates to agonist-induced platelet aggregation in platelet-rich plasma (PRP). In words: Platelet Aggregation Assay. Type of assay: cell-based. The conditions noted are these: human PRP; agonists ADP, collagen, arachidonate, epinephrine, thrombin; compound added prior to activation of the platelets. On the procedure: Platelet Aggregation Assay
Venous blood was obtained from the arm of a healthy human donor who was drug-free and aspirin-free for at least two weeks prior to blood collection. Blood was collected into 10 ml citrated Vacutainer tubes. The blood was centrifuged for 15 minutes at 150×g at room temperature, and platelet-rich plasma (PRP) was removed. The remaining blood was centrifuged for 15 minutes at 1500×g at room temperature, and platelet-poor plasma (PPP) was removed. Samples were assayed on a aggregometer (PAP-4 Platelet Aggregation Profiler), using PPP as the blank (100% transmittance). 200 μl of PRP was added to each micro test tube, and transmittance was set to 0%. 20 μl of various agonists (ADP, collagen, arachidonate, epinephrine, thrombin) were added to each tube, and the aggregation profiles were plotted (% transmittance versus time). The results were expressed as % inhibition of agonist-induced platelet aggregation. For the IC50 evaluation, the test compounds were added at various concentrations prior to the activation of the platelets.

Take “cyclo-(D-Val-N(Me)Arg-Gly-Asp-[2-amino]-4-thiazoleacetate) [Example 4]”: the IC50 is below 1000 nM.
In turn, `CC(C)[C@H]1NC(=O)c2cccc(n2)CNC(=O)[C@H](CC(=O)O)NC(=O)CNC(=O)[C@H](CCCNC(=N)N)N(C)C1=O` [Example 3, cyclo(6-(D-Val-NMeArg-Gly-Asp)aminomethyl-2-pyridinecarboxylate)] returned an IC50 of 1000 to 10000 nM.
The molecule `CC(C)[C@H]1NC(=O)C2=CC=C(CNC(=O)[C@H](CC(=O)O)NC(=O)CNC(=O)[C@H](CCCNC(=N)N)N(C)C1=O)O2` [Example 1, cyclo-(D-Val-N(Me)Arg-Gly-Asp-[5-aminomethyl]-2-furoate)] returned an IC50 below 1000 nM.
